Measured values as given in ChEMBL document CHEMBL5523679, “Discovery of 1,2,3-triazole incorporated indole-piperazines as potent antitubercular agents: Design, synthesis, in vitro biological evaluation, molecular docking and ADME studies” (Bioorg Med Chem, 2024).
In brackets after ≈: the same amount, converted by molar mass.

Assays:
[1] = tested on: Mycobacterium tuberculosis; assay: Antimycobacterial activity against Mycobacterium tuberculosis H37Rv assessed as bacterial growth inhibition by microplate Alamar blue assay; assay type: functional
Escherichia coli [2] = assay: Antibacterial activity against Escherichia coli assessed as inhibition zone at 75 ug/ml by diffusion method; assay type: functional; settings: read-out: IZ
Escherichia coli [3] = assay: Antibacterial activity against Escherichia coli assessed as inhibition zone at 50 ug/ml by diffusion method; assay type: functional; settings: read-out: IZ
Escherichia coli [4] = assay: Antibacterial activity against Escherichia coli assessed as inhibition zone at 25 ug/ml by diffusion method; assay type: functional; settings: read-out: IZ
Staphylococcus aureus [5] = assay: Antibacterial activity against Staphylococcus aureus assessed as inhibition zone at 75 ug/ml by diffusion method; assay type: functional; settings: read-out: IZ
Staphylococcus aureus [6] = assay: Antibacterial activity against Staphylococcus aureus assessed as inhibition zone at 50 ug/ml by diffusion method; assay type: functional; settings: read-out: IZ
Staphylococcus aureus [7] = assay: Antibacterial activity against Staphylococcus aureus assessed as inhibition zone at 25 ug/ml by diffusion method; assay type: functional; settings: read-out: IZ
Pseudomonas aeruginosa [8] = assay: Antibacterial activity against Pseudomonas aeruginosa assessed as inhibition zone at 75 ug/ml by diffusion method; assay type: functional; settings: read-out: IZ
[9] = Cytotoxicity against African green monkey Vero cells measured after 72 hrs by MTT assay; assay type: toxicity, cell-based; settings: chlorocebus sabaeus
[10] = Selectivity index, ratio of CC50 for African green monkey Vero cells to MIC for Mycobacterium tuberculosis H37Rv; assay type: toxicity; settings: read-out: Selectivity Index
[11] = Cytotoxicity against African green monkey Vero cells assessed as inhibition of cell growth at 6.25 ug/ml measured after 72 hrs by MTT assay relative to control; assay type: toxicity, cell-based; settings: chlorocebus sabaeus, at 6.25 µg/mL
Pseudomonas aeruginosa [12] = assay: Antibacterial activity against Pseudomonas aeruginosa assessed as inhibition zone at 50 ug/ml by diffusion method; assay type: functional; settings: read-out: IZ
Pseudomonas aeruginosa [13] = assay: Antibacterial activity against Pseudomonas aeruginosa assessed as inhibition zone at 25 ug/ml by diffusion method; assay type: functional; settings: read-out: IZ

Row | Compound | MIC [1] [µM] | zone of inhibition at 75 µg/mL (Escherichia coli [2]) [mm] | zone of inhibition at 50 µg/mL (Escherichia coli [3]) [mm] | zone of inhibition at 25 µg/mL (Escherichia coli [4]) [mm] | zone of inhibition at 75 µg/mL (Staphylococcus aureus [5]) [mm] | zone of inhibition at 50 µg/mL (Staphylococcus aureus [6]) [mm] | zone of inhibition at 25 µg/mL (Staphylococcus aureus [7]) [mm] | zone of inhibition at 75 µg/mL (Pseudomonas aeruginosa [8]) [mm] | CC50 at 72 h [9] [µg/mL] | selectivity ratio [10] | inhibition at 72 h, 6.25 ug/ml [11] [%] | zone of inhibition at 50 µg/mL (Pseudomonas aeruginosa [12]) [mm] | zone of inhibition at 25 µg/mL (Pseudomonas aeruginosa [13]) [mm]
1 | O=C(CCc1cn(Cc2cn(Cc3ccc(F)cc3)nn2)c2ccccc12)N1CCN(C(=O)c2ccc(F)cc2)CC1 | 2.8 | 23 | 20 | 15 | 20 | 15 | 13 | 13 | 1200 (≈ 2110 µM) | 750 | 11.7 | – | –
2 | Cc1ccc(S(=O)(=O)N2CCN(C(=O)Cc3c[nH]c4ccccc34)CC2)cc1 | > 120 | 18 | 15 | 12 | 15 | 12 | 10 | 15 | – | – | – | 13 | 10
3 | O=C(CCc1cn(Cc2ccc(F)cc2)c2ccccc12)N1CCN(C(=O)c2ccc(F)cc2)CC1 | 12.8 | 18 | 15 | – | 23 | 17 | 13 | 13 | 619 (≈ 1270 µM) | 198 | 31.9 | – | –
4 | O=C(CCc1cn(Cc2cn(Cc3ccc(F)cc3)nn2)c2ccccc12)N1CCN(C(=O)c2ccc(Cl)cc2)CC1 | 10.7 | 23 | 20 | 13 | 18 | 15 | 6 | 15 | 986 (≈ 1680 µM) | 158 | 7.9 | 12 | –
5 | Cc1ccc(S(=O)(=O)N2CCN(C(=O)CCc3cn(Cc4cn(Cc5ccc(F)cc5)nn4)c4ccccc34)CC2)cc1 | 20.8 | 20 | 20 | 15 | 20 | 15 | 12 | 15 | – | – | – | 13 | 9
6 | Cc1ccc(C(=O)N2CCN(C(=O)CCc3cn(Cc4ccc(F)cc4)c4ccccc34)CC2)cc1 | 51.7 | 17 | 15 | – | 20 | 18 | 13 | 18 | – | – | – | 15 | 10
7 | O=C(CCc1c[nH]c2ccccc12)N1CCN(S(=O)(=O)c2ccc(F)cc2)CC1 | > 120 | 17 | 15 | 13 | 20 | 15 | 13 | 18 | – | – | – | 15 | 13
8 | O=C(Cc1cn(Cc2ccc(F)cc2)c2ccccc12)N1CCN(C(=O)c2ccc(F)cc2)CC1 | 13.2 | 18 | 15 | – | 21 | 18 | 15 | 13 | 448 (≈ 946 µM) | 71.7 | 33.8 | 10 | –
9 | O=C(CCc1cn(Cc2cn(Cc3ccc(F)cc3)nn2)c2ccccc12)N1CCN(C(=O)c2cccnc2Cl)CC1 | 5.3 | 25 | 23 | 13 | 18 | 15 | 10 | 13 | 946 (≈ 1610 µM) | 303 | 10.1 | 10 | –
10 | O=C(Cc1c[nH]c2ccccc12)N1CCN(S(=O)(=O)c2ccccc2)CC1 | > 120 | 17 | 15 | 13 | 18 | 15 | 13 | 18 | – | – | – | 15 | 13
11 | O=C(CCc1cn(Cc2ccc(F)cc2)c2ccccc12)N1CCN(S(=O)(=O)c2ccccc2)CC1 | 49.4 | 14 | 12 | – | 20 | 18 | 15 | 18 | – | – | – | 15 | 10
12 | O=C(CCc1cn(Cc2cn(Cc3ccc(F)cc3)nn2)c2ccccc12)N1CCN(S(=O)(=O)c2ccc(Cl)cc2)CC1 | 20.1 | 24 | 20 | 15 | 20 | 13 | 10 | 18 | – | – | – | 15 | 10
13 | O=C(CCc1cn(Cc2cn(Cc3ccc(F)cc3)nn2)c2ccccc12)N1CCN(C(=O)c2cccnc2)CC1 | 2.9 | 25 | 23 | 15 | 18 | 15 | 6 | 10 | 1170 (≈ 2120 µM) | 732 | 11.7 | – | –
14 | Cc1ccc(C(=O)N2CCN(C(=O)Cc3cn(Cc4ccc(F)cc4)c4ccccc34)CC2)cc1 | 26.6 | 15 | 13 | – | 20 | 15 | 10 | 18 | – | – | – | 15 | 10
15 | Cc1ccc(S(=O)(=O)N2CCN(C(=O)CCc3c[nH]c4ccccc34)CC2)cc1 | > 120 | 18 | 15 | 13 | 15 | 13 | 10 | 18 | – | – | – | 15 | 10
16 | O=C(CCc1cn(Cc2ccc(F)cc2)c2ccccc12)N1CCN(C(=O)c2ccc(Cl)cc2)CC1 | 12.4 | 18 | 15 | – | 23 | 19 | 13 | 13 | 385 (≈ 764 µM) | 61.6 | 36.4 | 10 | –
